Data: patent US20240400553A1, “AMINE BASED MATRIPTASE 2 INHIBITORS AND USES THEREOF” (Disc Medicine, Inc., priority 2023, published 2024)

target: T1, Human Recombinant Matriptase 2 (Homo sapiens, UniProt Q8IU80); assay: Matriptase 2 inhibition, fluorescence based assay (Method I); format: biochemical; settings: Table A; Ki of Matriptase-2; read-out: Mat-2 Ki
T1 construct: made in house
T1 sequence (Q8IU80 1-811): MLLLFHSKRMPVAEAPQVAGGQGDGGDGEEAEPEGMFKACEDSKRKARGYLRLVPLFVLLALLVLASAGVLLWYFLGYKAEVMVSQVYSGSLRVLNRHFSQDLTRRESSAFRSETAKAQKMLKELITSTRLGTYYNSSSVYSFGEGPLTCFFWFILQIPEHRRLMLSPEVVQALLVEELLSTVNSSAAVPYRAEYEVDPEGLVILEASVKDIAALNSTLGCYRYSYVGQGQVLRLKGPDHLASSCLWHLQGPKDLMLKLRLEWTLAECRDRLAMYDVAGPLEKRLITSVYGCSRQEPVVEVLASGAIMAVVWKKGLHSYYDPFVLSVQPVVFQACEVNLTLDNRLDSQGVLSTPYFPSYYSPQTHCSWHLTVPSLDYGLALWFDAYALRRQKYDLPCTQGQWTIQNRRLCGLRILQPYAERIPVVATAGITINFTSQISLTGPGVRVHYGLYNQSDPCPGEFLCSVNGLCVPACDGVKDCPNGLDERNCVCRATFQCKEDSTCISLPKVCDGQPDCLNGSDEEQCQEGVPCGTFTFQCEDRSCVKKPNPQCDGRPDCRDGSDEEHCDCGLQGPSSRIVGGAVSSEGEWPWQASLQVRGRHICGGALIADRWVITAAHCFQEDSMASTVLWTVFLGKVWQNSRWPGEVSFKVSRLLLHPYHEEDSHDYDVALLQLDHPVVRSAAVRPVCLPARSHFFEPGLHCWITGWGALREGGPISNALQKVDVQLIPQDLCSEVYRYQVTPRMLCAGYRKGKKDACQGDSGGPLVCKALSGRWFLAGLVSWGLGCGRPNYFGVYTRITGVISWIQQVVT
In short: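 Fluorogenic readout (Ex 360/Em 480 nm) taken 60 min after adding 62 μM Boc-Gln-Ala-Arg-AMC, following 30-min enzyme–compound preincubation at 25 °C. Conditions: 3.5 nM in-house enzyme, pH 7.5 Tris/NaCl/gelatin buffer, 1% DMSO; percent inhibition versus concentration fitted by variable-slope sigmoidal regression.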

Ki [nM] | SMILES
500 to 3000 | CN1CCC(COC(=O)c2cc3ccc(CN)nc3n2Cc2cc(NS(=O)(=O)CC[C@@H]3CCCN3)cc3ccccc23)CC1 [Compound 2]
100 to 500 | CNC(=O)c1cc2ccc(CN)nc2n1Cc1cc(NS(=O)(=O)CC[C@@H]2CCCN2)cc2ccccc12 [Compound 3]
≤ 100 | NCc1ccc2cc(C(=O)O)n(Cc3cc(NS(=O)(=O)Cc4ccsc4)cc4ccccc34)c2n1 [Compound 4]
≤ 100 | CN1CCC(COC(=O)c2cc3ccc(CN)nc3n2Cc2cc(NS(=O)(=O)Cc3ccsc3)cc3ccccc23)CC1 [Compound 5]
≤ 100 | CN1CCC(CNC(=O)c2cc3ccc(CN)nc3n2Cc2cc(NS(=O)(=O)Cc3ccsc3)cc3ccccc23)CC1 [Compound 6, 6-(aminomethyl)-N-((1-methylpiperidin-4-yl)methyl)-1-((3-((thiophen-3-ylmethyl)sulfonamido)naphthalen-1-yl)methyl)-1H-pyrrolo[2,3-b]pyridine-2-carboxamide]
≤ 100 | NCc1ccc2cc(C(=O)OCCCCN3CCOCC3)n(Cc3cc(NS(=O)(=O)Cc4ccccc4)cc4ccccc34)c2n1 [Compound 7, 4-morpholinobutyl 6-(aminomethyl)-1-((3-((phenylmethyl)sulfonamido)naphthalen-1-yl)methyl)-1H-pyrrolo[2,3-b]pyridine-2-carboxylate]
≤ 100 | NCc1ccc2cc(C(=O)OCC3CCNCC3)n(Cc3cc(NS(=O)(=O)Cc4ccccc4)cc4ccccc34)c2n1 [Compound 9, (piperidin-4-yl)methyl 6-(aminomethyl)-1-{[3-(phenylmethanesulfon-amido)naphthalen-1-yl]-methyl}-1H-pyrrolo[2,3-b]pyridine-2-carboxylate]
≤ 100 | CN1CCC(C)(COC(=O)c2cc3ccc(CN)nc3n2Cc2cc(NS(=O)(=O)Cc3ccccc3)cc3ccccc23)CC1 [Compound 10, (1,4-dimethylpiperidin-4-yl)methyl 6-(amino-methyl)-1-{[3-(phenyl-methanesulfonamido)-naphthalen-1-yl]meth-yl}-1H-pyrrolo[2,3-b]-pyridine-2-carboxylate]
≤ 100 | CN1CCC(CNC(=O)c2cc3ccc(CN)nc3n2Cc2cc(NS(=O)(=O)Cc3ccccc3)cc3ccccc23)CC1 [Compound 12, 6-(aminomethyl)-N-[(1-methylpiperidin-4-yl)-methyl]-1-{[3-(phenyl-methanesulfonamido)-naphthalen-1-yl]meth-yl}-1H-pyrrolo[2,3-b]-pyridine-2-carboxamide]
≤ 100 | CCN1CCC(COC(=O)c2cc3ccc(CN)nc3n2Cc2cc(NS(=O)(=O)Cc3ccccc3)cc3ccccc23)CC1 [Compound 13, (1-ethylpiperidin-4-yl)-methyl 6-(aminomethyl)-1-{[3-(phenylmethane-sulfonamido)naphthalen-1-yl]methyl}-1H-pyr-rolo[2,3-b]pyridine-2-carboxylate]
≤ 100 | CC(C)N1CCC(CNC(=O)c2cc3ccc(CN)nc3n2Cc2cc(NS(=O)(=O)Cc3ccccc3)cc3ccccc23)CC1 [Compound 14, 6-(aminomethyl)-1-{[3-(phenylmethanesulfon-amido)naphthalen-1-yl]-methyl}-N-{[1-(propan-2-yl)piperidin-4-yl]-methyl}-1H-pyrrolo-[2,3-b]pyridine-2-car-boxamide]
≤ 100 | CC(C)N1CCC(COC(=O)c2cc3ccc(CN)nc3n2Cc2cc(NS(=O)(=O)Cc3ccccc3)cc3ccccc23)CC1 [Compound 15]
≤ 100 | CC(C)N1CCC(OC(=O)c2cc3ccc(CN)nc3n2Cc2cc(NS(=O)(=O)Cc3ccccc3)cc3ccccc23)CC1 [Compound 16, 1-(propan-2-yl)piperidin-4-yl 6-(aminomethyl)-1-{[3-(phenylmethane-sulfonamido)naphthalen-1-yl]methyl}-1H-pyr-rolo[2,3-b]pyridine-2-carboxylate]
≤ 100 | CN1CCC(COC(=O)c2cc3ccc(CN)nc3n2Cc2cc(NS(=O)(=O)Cc3ccccc3)cc3ccccc23)CC1 [Compound 17, (1-methylpiperidin-4-yl)methyl 6-(amino-methyl)-1-{[3-(phenyl-methanesulfonamido)-naphthalen-1-yl]methyl}-1H-pyrrolo[2,3-b]pyr-idine-2-carboxylate]
≤ 100 | CN1CCC(OC(=O)c2cc3ccc(CN)nc3n2Cc2cc(NS(=O)(=O)Cc3ccccc3)cc3ccccc23)CC1 [Compound 18, 1-methylpiperidin-4-yl 6-(aminomethyl)-1-{[3-(phenylmethanesulfon-amido)naphthalen-1-yl]-methyl}-1H-pyrrolo[2,3-b]pyridine-2-carboxylate]

SMILES | Ki [nM]
NCc1ccc2cc(C(=O)OCC34CCN(CC3)CC4)n(Cc3cc(NS(=O)(=O)Cc4ccccc4)cc4ccccc34)c2n1 [Compound 19, {1-azabicyclo[2.2.2]-octan-4-yl}methyl 6-(aminomethyl)-1-{[3-(phenylmethanesulfon-amido)naphthalen-1-yl]-methyl}-1H-pyrrolo[2,3-b]pyridine-2-carboxylate] | ≤ 100

same assay, conditions: Table B; Human Recombinant Matriptase 2, 3.5 nM enzyme, 62 μM substrate, 30 mins preincubation; read-out: Mean Ki

Ki [nM] | SMILES
≤ 100 | CB1C=Cc2c(Cn3c(C(=O)OCC4CCN(C)CC4)cc4ccc(CN)nc43)cc(NS(=O)(=O)Cc3ccccc3)cc2N1 [Compound 2.25]
> 3000 | CN1CCC(COC(=O)c2cc3ccc(CN)nc3n2Cc2cccn3nccc23)CC1 [Compound 2.26]
100 to 500 | CN(C)c1ccc(COC(=O)c2cc3ccc(CN)nc3n2Cc2cc(NS(=O)(=O)Cc3ccccc3)cc3ccccc23)cc1 [Compound 2.27]
100 to 500 | CN1CCC(COC(=O)c2cc3ccc(CN)nc3n2Cc2cc(NS(=O)(=O)CC3CC3)cc3ccccc23)CC1 [Compound 2.28]
≤ 100 | Cn1ccnc1CCOC(=O)c1cc2ccc(CN)nc2n1Cc1cc(NS(=O)(=O)Cc2ccsc2)cc2ccccc12 [Compound 2.29]
> 3000 | C=Cc1c(N)cc(Br)cc1Cn1c(C(=O)OCC2CCN(C)CC2)cc2ccc(CN)nc21 [Compound 2.30]
500 to 3000 | CB1C=Cc2c(Cn3c(C(=O)OCC4CCN(C)CC4)cc4ccc(CN)nc43)cc(Br)cc2N1 [Compound 2.31]
≤ 100 | CN1CCC(COC(=O)c2cc3ccc(CN)nc3n2Cc2cc(NS(=O)(=O)Cc3ccsc3)cc3ccccc23)CC1=O (stereo not drawn) [Compound 2.32]
≤ 100 | CN1CCC(C(OC(=O)c2cc3ccc(CN)nc3n2Cc2cc(NS(=O)(=O)Cc3ccccc3)cc3ccccc23)C2CC2)CC1 (stereo not drawn) [Compound 2.33]
≤ 100 | CNC12CC(COC(=O)c3cc4ccc(CN)nc4n3Cc3cc(NS(=O)(=O)Cc4c(C)cccc4C)cc4ccccc34)(C1)C2 [Compound 2.34]
100 to 500 | NCc1ccc2cc(C(=O)Nc3ccc(N)cc3)n(Cc3cc(NS(=O)(=O)Cc4ccccc4)cc4ccccc34)c2n1 [Compound 2.35]
100 to 500 | CN(C)c1ccc(NC(=O)c2cc3ccc(CN)nc3n2Cc2cc(NS(=O)(=O)Cc3ccccc3)cc3ccccc23)cc1 [Compound 2.36]
> 3000 | CN1CCC(COC(=O)c2cc3ccc(CN)nc3n2CC(NS(=O)(=O)Cc2ccccc2)c2ccccc2)CC1 (stereo not drawn) [Compound 2.37]
≤ 100 | CNC12CC(COC(=O)c3cc4ccc(CN)nc4n3Cc3cc(NS(=O)(=O)Cc4c(C)cccc4C)cc4c3CCCC4)(C1)C2 [Compound 2.38]
> 3000 | CN1CCC(COC(=O)c2cc3ccc(CN)nc3n2Cc2cccn3ccnc23)CC1 [Compound 2.39]
≤ 100 | CN(C)C12CC(COC(=O)c3cc4ccc(CN)nc4n3Cc3cc(NS(=O)(=O)Cc4ccccc4)cc4ccccc34)(C1)C2 [Compound 2.40]
≤ 100 | CNC12CC(COC(=O)c3cc4ccc(CN)nc4n3Cc3cc(NS(=O)(=O)Cc4ccccc4)cc4ccccc34)(C1)C2 [Compound 2.41]
100 to 500 | Cc1cccc(C)c1CS(=O)(=O)Nc1cc2c(c(Cn3c(C(=O)OCc4cncn4C(C)(C)C)cc4ccc(CN)nc43)c1)CCCC2 [Compound 2.42]
≤ 100 | Cc1cccc(C)c1CS(=O)(=O)Nc1cc2c(c(Cn3c(C(=O)OCC4CCN(C)CC4)cc4ccc(CN)nc43)c1)CCCC2 [Compound 2.43]
100 to 500 | Cc1cccc(C)c1CS(=O)(=O)Nc1cc2c(c(Cn3c(C(=O)OCc4nccn4C)cc4ccc(CN)nc43)c1)CCCC2 [Compound 2.44]
> 3000 | CN1CCC(COC(=O)c2cc3ccc(CN)nc3n2Cc2cc(NS(=O)(=O)Cc3ccccc3)cs2)CC1 [Compound 2.45]
> 3000 | CN1CCC(COC(=O)c2cc3ccc(CN)nc3n2Cc2cccc3cnccc23)CC1 [Compound 2.46]
100 to 500 | CN1CCC(COC(=O)c2cc3ccc(CN)nc3n2Cc2cccc(NS(=O)(=O)Cc3ccccc3)c2)CC1 [Compound 2.48]
